From patent US11628169B2, “Therapeutic drug for motor complications in Parkinson's disease” (Sumitomo Pharma Co., Ltd., priority 2020, dated 2023)
Where a name gives a salt, the structure may show the parent alone.

Experiments:
Format in all cases: in vivo
PD-LID rat model [1] = assay: ON score and ON time without dyskinesia in PD-LID rat model
Protocol: To make a PD-LID rat model, a mixture of levodopa methyl ester hydrochloride (6 mg/kg; Sigma-Aldrich) dissolved in saline and benserazide hydrochloride (15 mg/kg; Sigma-Aldrich) (hereinafter, also referred to as “levodopa containing solution”) was intraperitoneally administered once daily to 6-OHDA-lesioned rats. The levodopa containing solution was repeatedly administered for 3 weeks or longer to observe and evaluate the behavior. The behavior was observed and evaluated in a transparent acrylic cage for 1 minute every 20 minutes after 20 minutes from the intraperitoneal administration of the levodopa containing solution, up until after 3 hours from administration. […] Individuals with a total AIMs score of less than 10 were excluded from the test as not manifesting a dyskinesia-like symptom. The behavior was observed and evaluated before the drug evaluation date. […] For an indicator of dyskinesia behavior, the sum of the Limb AIMs, Axial AIMs, and Orolingual AIMs at each evaluation point was used as the AIMs score. For the rotational behavior (ON score), Locomotive behavior at each evaluation point was used as an indicator. […] For ON time without dyskinesia, the period during which the AIMs score is 0 and Locomotive behavior is 1 or greater at each evaluation point was added. Duration of action of levodopa without a dyskinesia symptom (ON time without dyskinesia) refers to the aggregate time with no dyskinesia during the antiparkinsonian action effective time, i.e., “ON-time”, and defined as the time during which the dyskinesia symptom (AIMs) score is 0 and the rotational behavior (Locomotive behavior) score is 1 or greater at each evaluation point after levodopa administration. […] After 5 minutes, a levodopa containing solution was intraperitoneally administered, and the behavior was observed and evaluated. The results in the drawings are indicated in terms of mean value±standard error. […] For evaluation of a tape agent, the abdominal regions of the rats were shaved prior to the evaluation date. […] After 4 hours from application, a levodopa containing solution was intraperitoneally administered to observe and evaluation the behavior. The results in the drawings are indicated in terms of mean value±standard error. Individuals with 50% or more of the tape agent coming off during the test were excluded from analysis.

PD-LID rat model [2] = assay: Dyskinesia-like symptom (AIMs) score in PD-LID rat model; conditions: for total dyskinesia-like symptom (AIMs) score in 3 hours: levodopa 5 min later, vs solvent group
Protocol: To make a PD-LID rat model, a mixture of levodopa methyl ester hydrochloride (6 mg/kg; Sigma-Aldrich) dissolved in saline and benserazide hydrochloride (15 mg/kg; Sigma-Aldrich) (hereinafter, also referred to as “levodopa containing solution”) was intraperitoneally administered once daily to 6-OHDA-lesioned rats. The levodopa containing solution was repeatedly administered for 3 weeks or longer to observe and evaluate the behavior. The behavior was observed and evaluated in a transparent acrylic cage for 1 minute every 20 minutes after 20 minutes from the intraperitoneal administration of the levodopa containing solution, up until after 3 hours from administration. […] The sum of the scores for Limb AIMs, Axial AIMs, and Orolingual AIMs in 3 hours was used as the total dyskinesia-like symptom (AIMs) score. Individuals with a total AIMs score of less than 10 were excluded from the test as not manifesting a dyskinesia-like symptom. The behavior was observed and evaluated before the drug evaluation date. The rats were assigned to each dosing group by using the 3 hour total dyskinesia-like symptom (AIMs) score, Locomotive behavior score, and rat body weight as indicators, which were used for evaluation of drugs. […]
After 4 hours from application, a levodopa containing solution was intraperitoneally administered to observe and evaluate the behavior. Individuals with 50% or more of the tape agent coming off during the test were excluded from analysis. […]
As in Example 2, a levodopa containing solution was repeated administered to 6-0HDA-lesioned rats for 3 weeks or longer to observe and evaluate the behavior. The behavior was observed and evaluated before the drug evaluation date. The rats were assigned to each dosing group by using the 3 hour dyskinesia-like symptom (AIMs) score, Locomotive behavior score, and rat body weight as indicators, which were used for evaluation of drugs. However, individuals with a total AIMs score of less than 10 were excluded from the test as lacking manifestation of a dyskinesia-like symptom. Individuals with a body weight deviating 10% or more from the mean body weight were also excluded from the test to minimize variation in the dosage for each individual. […]
After 4 hours, a levodopa containing solution was administered to observe and evaluate the behavior. […]
The prepared solution was used after injection into an ALZET® Osmotic Pump MODEL 2ML2 (4.53 μL/hour; DURECT) for releasing a drug solution at a stable rate for 2 weeks. […]
The behavior was observed and evaluated using the same method as Example 2. […] After 5 minutes, a levodopa containing solution was intraperitoneally administered, and the behavior was observed and evaluated. The results in the drawings are indicated in terms of mean value […] standard error. The test results were statistically analyzed by comparison with the solvent administration group by Steel test using the total dyskinesia-like symptom (AIMs) score in 3 hours and total dyskinesia-like symptom score in 100 to 180 minutes as parameters. * indicates p<0.05, meaning that there is a significant difference.
The behavior was observed and evaluated using the same method in Example 2. […] The test results were statistically analyzed by comparison with the solvent administration group by Steel test by using the total dyskinesia-like symptom (AIMs) score in 3 hours and total dyskinesia-like symptom score in 100 to 180 minutes as parameters.

[3] = test system: rat Vogel conflict test model; assay: Anxiolytic action in rat Vogel conflict test model; conditions: effect on PD-LID evaluated in 6-OHDA-lesioned rats
Protocol: The anxiolytic action was evaluated using a rat Vogel conflict test model, and the effect on PD-LID was evaluated in 6-0HDA-lesioned rats.

PD-LID rat model [4] = assay: Dyskinesia-like symptom (AIMs) score in PD-LID rat model
[5] = continuous subcutaneous infusion 1.25 mg/kg/hour, vs solvent
[6] = oral 6.7 mg/kg as free form (10 mg/kg as citrate)
[7] = oral 67 mg/kg as free form (100 mg/kg as citrate)
[8] = transdermal condition 1, 37 mg/kg as free form
[9] = transdermal condition 2 (stripping), 45 mg/kg as free form

O=C1[C@@H]2[C@H]3CC[C@H](C3)[C@@H]2C(=O)N1CCCCN1CCN(c2ncccn2)CC1 [tandospirone, (1R,2S,3R,4S)—N-[4-{4-(pyrimidine-2-yl)piperadine-1-yl}butyl]-2,3-bicyclo[2.2.1]heptanedicarboximide]
(iii) Duration of action of levodopa without dyskinesia symptom (ON time without dyskinesia) (PD-LID rat model [1]; oral 6.7 mg/kg as free form (10 mg/kg as citrate), vs solvent group): Ineffective
(iii) Duration of action of levodopa without dyskinesia symptom (ON time without dyskinesia) (PD-LID rat model [1]; oral 20 mg/kg as free form (30 mg/kg as citrate), vs solvent group): Ineffective
(iii) Duration of action of levodopa without dyskinesia symptom (ON time without dyskinesia) (PD-LID rat model [1]; transdermal condition 1 (no stripping), 37 mg/kg as free form, 180 min, prolongation vs placebo tape): 21.7 min
(iii) Duration of action of levodopa without dyskinesia symptom (ON time without dyskinesia) (PD-LID rat model [1]; transdermal condition 2 (stripping), 45 mg/kg as free form, 180 min, prolongation vs placebo tape): 77.8 min
total dyskinesia-like symptom score in 100 to 180 minutes (PD-LID rat model [2]; [5]): significant improvement
dyskinesia-like symptoms (total AIMs score in 3 hours) (PD-LID rat model [2]; continuous subcutaneous infusion 0.05, 0.25, 1.25 mg/kg/hour, levodopa 4 hours after pump implant, vs solvent): dose-dependently improved dyskinesia-like symptoms
anxiolytic action compared with effect on PD-LID [3]: exerted at the same dosage
dyskinesia-like symptoms (total AIMs score in 3 hours) (PD-LID rat model [4]; [5]): significant improvement
(i) Degree of improvement in indicator of dyskinesia symptom (total AIMs score in 3 hours, solvent minus tandospirone group) (PD-LID rat model [4]; [6]): Ineffective
(ii) Indicator of rebound symptom of dyskinesia (total dyskinesia-like symptom score in 100 to 180 minutes, solvent minus tandospirone group) (PD-LID rat model [4]; [6]): No effect
(i) Degree of improvement in indicator of dyskinesia symptom (total AIMs score in 3 hours, solvent minus tandospirone group) (PD-LID rat model [4]; oral 20 mg/kg as free form (30 mg/kg as citrate)): Ineffective
(ii) Indicator of rebound symptom of dyskinesia (total dyskinesia-like symptom score in 100 to 180 minutes, solvent minus tandospirone group) (PD-LID rat model [4]; oral 20 mg/kg as free form (30 mg/kg as citrate), experiment printed as (FIG. 7)): −9.1
(ii) Indicator of rebound symptom of dyskinesia (total dyskinesia-like symptom score in 100 to 180 minutes, solvent minus tandospirone group) (PD-LID rat model [4]; oral 20 mg/kg as free form (30 mg/kg as citrate), experiment printed as (FIGS. 8A-8B)): −8.5
(i) Degree of improvement in indicator of dyskinesia symptom (total AIMs score in 3 hours, solvent minus tandospirone group) (PD-LID rat model [4]; [7]): Ineffective
(ii) Indicator of rebound symptom of dyskinesia (total dyskinesia-like symptom score in 100 to 180 minutes, solvent minus tandospirone group) (PD-LID rat model [4]; [7]): −10.1
(i) Degree of improvement in indicator of dyskinesia symptom (total AIMs score in 3 hours, placebo minus tandospirone group) (PD-LID rat model [4]; [8]): 17.7
(ii) Indicator of rebound symptom of dyskinesia (total dyskinesia-like symptom score in 100 to 180 minutes, placebo minus tandospirone group) (PD-LID rat model [4]; [8]): No effect
(i) Degree of improvement in indicator of dyskinesia symptom (total AIMs score in 3 hours, placebo minus tandospirone group) (PD-LID rat model [4]; [9]): 27.1
(ii) Indicator of rebound symptom of dyskinesia (total dyskinesia-like symptom score in 100 to 180 minutes, placebo minus tandospirone group) (PD-LID rat model [4]; [9]): No effect

c1cnc(N2CCNCC2)nc1 [1-PP dihydrochloride, 1-(2-Pyrimidyl)piperazine]
total dyskinesia-like symptom (AIMs) score in 3 hours (PD-LID rat model [2]; subcutaneous 10 mg/kg): significant change in the total AIMs score was not found
total dyskinesia-like symptom (AIMs) score in 3 hours (PD-LID rat model [2]; subcutaneous 30 mg/kg): significant change in the total AIMs score was not found
total dyskinesia-like symptom score in 100 to 180 minutes (PD-LID rat model [4]; subcutaneous 10 or 30 mg/kg, vs solvent group): increasing trend in the total AIMs score, albeit not significant
